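Interpolation was linear, between the two tested concentrations surrounding the appropriate level; five concentrations were tested over 48 hours in 96-well plates. At the TGI there is no net growth.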
Tests used:
Experiment in all cases: NCI tumour cell line growth inhibition, 48 h
[1] = test system: HCT-15 colon
[2] = test system: LOX IMVI melanoma
[3] = test system: A498 renal
[4] = test system: OVCAR-5 ovarian
[5] = test system: HOP-62 NSCLC
[6] = test system: A549 NSCLC
[7] = test system: SNB-19 CNS
[8] = test system: NCI-H460 lung
[9] = test system: SR leukemia
[10] = test system: HOP-92 NSCLC
[11] = test system: HOP-18 NSCLC
[12] = test system: DMS 114 small cell lung
[13] = test system: M14 melanoma
[14] = test system: CCRF-CEM leukemia
[15] = test system: IGROV1 ovarian
[16] = test system: SW-620 colon
[17] = test system: RXF 393 renal
[18] = test system: MOLT-4 leukemia
[19] = test system: HCC-2998 colon
[20] = test system: SK-MEL-28 melanoma
[21] = test system: M19-MEL melanoma
[22] = test system: SK-OV-3 ovarian
[23] = test system: UACC-257 melanoma
[24] = test system: SK-MEL-2 melanoma
[25] = test system: COLO 205 colon
[26] = test system: OVCAR-3 ovarian
[27] = test system: SF-268 CNS
[28] = test system: U251 CNS
[29] = test system: NCI-H23 lung
[30] = test system: SNB-75 CNS
[31] = test system: TK-10 renal
[32] = test system: DLD-1 colon
[33] = test system: SF-295 CNS
[34] = test system: DMS 273 small cell lung
[35] = test system: SF-539 CNS
[36] = test system: RPMI-8226 leukemia
[37] = test system: MALME-3M melanoma
[38] = test system: UO-31 renal
[39] = test system: EKVX NSCLC
[40] = test system: OVCAR-4 ovarian
[41] = test system: HCT-116 colon
[42] = test system: HL-60(TB) leukemia
[43] = test system: SK-MEL-5 melanoma
[44] = test system: HT29 colon
[45] = test system: K-562 leukemia
[46] = test system: KM12 colon
[47] = test system: OVCAR-8 ovarian
[48] = test system: ACHN renal
[49] = test system: KM20L2 colon
[50] = test system: NCI-H226 lung
[51] = test system: RXF-631 renal
[52] = test system: SN12C renal
[53] = test system: UACC-62 melanoma
[54] = test system: LXFL 529 NSCLC
[55] = test system: MDA-MB-231 breast
[56] = test system: HS 578T breast
[57] = test system: BT-549 breast
[58] = test system: NCI/ADR-RES ovarian
[59] = test system: SNB-78 CNS
[60] = test system: 786-0 renal
[61] = test system: MCF7 breast
[62] = test system: NCI-H522 lung
[63] = test system: MDA-N
[64] = test system: MDA-MB-435
[65] = test system: PC-3 prostate
[66] = test system: XF 498 CNS
[67] = test system: CAKI-1 renal
[68] = test system: DU-145 prostate
[69] = test system: T-47D breast
[70] = test system: SN12K1 renal
[71] = test system: P388/ADR leukemia
[72] = test system: P388 leukemia

Nc1ccccc1S(=O)(=O)c1ccccc1
TGI [1]: > 100 µM | TGI [2]: > 100 µM | TGI [3]: > 100 µM | TGI [4]: > 100 µM | TGI [5]: > 100 µM | TGI [6]: > 100 µM | TGI [7]: > 100 µM | TGI [8]: > 100 µM | TGI [9]: > 100 µM | TGI [10]: > 100 µM | TGI [11]: > 100 µM | TGI [12]: > 100 µM | TGI [13]: > 100 µM | TGI [14]: > 100 µM | TGI [15]: > 100 µM | TGI [16]: > 100 µM | TGI [17]: > 100 µM | TGI [18]: > 100 µM | TGI [19]: > 100 µM | TGI [20]: > 100 µM | TGI [21]: > 100 µM | TGI [22]: > 100 µM | TGI [23]: > 100 µM | TGI [24]: > 100 µM | TGI [25]: > 100 µM | TGI [26]: > 100 µM | TGI [27]: > 100 µM | TGI [28]: > 100 µM | TGI [29]: > 100 µM | TGI [30]: > 100 µM | TGI [31]: > 100 µM | TGI [32]: > 100 µM | TGI [33]: > 100 µM | TGI [34]: > 100 µM | TGI [35]: > 100 µM | TGI [36]: > 100 µM | TGI [37]: > 100 µM | TGI [38]: > 100 µM | TGI [39]: > 100 µM | TGI [40]: > 100 µM | TGI [41]: > 100 µM | TGI [42]: > 100 µM | TGI [43]: > 100 µM | TGI [44]: > 100 µM | TGI [45]: > 100 µM | TGI [46]: > 100 µM | TGI [47]: > 100 µM | TGI [48]: > 100 µM | TGI [49]: > 100 µM | TGI [50]: > 100 µM | TGI [51]: > 100 µM | TGI [52]: > 100 µM | TGI [53]: > 100 µM | TGI [54]: > 100 µM

c1cc2n(n1)CCN2
TGI [1]: > 10000 µM | TGI [2]: 7690 µM | TGI [3]: 6270 µM | TGI [55]: > 10000 µM | TGI [4]: > 10000 µM | TGI [56]: > 5490 µM | TGI [5]: > 9550 µM | TGI [6]: 8580 µM | TGI [7]: > 10000 µM | TGI [8]: 6710 µM | TGI [57]: > 10000 µM | TGI [9]: > 9010 µM | TGI [10]: > 10000 µM | TGI [11]: > 10000 µM | TGI [12]: > 8170 µM | TGI [13]: 5760 µM | TGI [14]: 6680 µM | TGI [15]: > 10000 µM | TGI [16]: > 10000 µM | TGI [17]: 9590 µM | TGI [18]: 9880 µM | TGI [19]: > 7040 µM | TGI [20]: > 10000 µM | TGI [21]: > 10000 µM | TGI [58]: 6590 µM | TGI [59]: > 8740 µM | TGI [22]: > 7350 µM | TGI [23]: > 10000 µM | TGI [24]: > 7500 µM | TGI [25]: > 10000 µM | TGI [26]: > 10000 µM | TGI [27]: 8200 µM | TGI [60]: > 7100 µM | TGI [61]: > 8650 µM | TGI [62]: > 7740 µM | TGI [28]: 5740 µM | TGI [29]: 6720 µM | TGI [30]: 9460 µM | TGI [31]: > 10000 µM | TGI [32]: > 10000 µM | TGI [33]: 4350 µM | TGI [63]: > 10000 µM | TGI [34]: 2440 µM | TGI [35]: 4990 µM | TGI [36]: > 10000 µM | TGI [64]: > 10000 µM | TGI [37]: 9920 µM | TGI [38]: 9890 µM | TGI [39]: 6630 µM | TGI [40]: > 9780 µM | TGI [65]: > 10000 µM | TGI [41]: > 10000 µM | TGI [42]: 5150 µM | TGI [43]: > 7740 µM | TGI [66]: 6960 µM | TGI [44]: > 10000 µM | TGI [67]: 4680 µM | TGI [68]: > 10000 µM | TGI [69]: > 10000 µM | TGI [45]: > 10000 µM | TGI [46]: > 10000 µM | TGI [47]: > 9400 µM | TGI [48]: 5330 µM | TGI [70]: 5980 µM | TGI [71]: 4830 µM | TGI [49]: > 10000 µM | TGI [72]: 2770 µM | TGI [50]: > 9350 µM | TGI [52]: 7050 µM | TGI [53]: 6540 µM

O=C(NC(=O)c1cn(CCN(CCO)C(=O)NCCCCCCNC(=O)N(CCO)CCn2cc(C(=O)NC(=O)OCc3ccccc3)c(=O)[nH]c2=O)c(=O)[nH]c1=O)OCc1ccccc1
TGI [1]: > 100 µM | TGI [2]: > 100 µM | TGI [4]: > 100 µM | TGI [5]: > 100 µM | TGI [6]: > 100 µM | TGI [7]: > 100 µM | TGI [8]: > 100 µM | TGI [10]: > 100 µM | TGI [11]: > 100 µM | TGI [12]: > 100 µM | TGI [13]: > 100 µM | TGI [14]: > 100 µM | TGI [15]: > 100 µM | TGI [16]: > 100 µM | TGI [17]: > 100 µM | TGI [18]: > 100 µM | TGI [20]: > 100 µM | TGI [21]: > 100 µM | TGI [59]: > 100 µM | TGI [22]: > 100 µM | TGI [23]: > 100 µM | TGI [24]: > 100 µM | TGI [25]: > 100 µM | TGI [26]: > 100 µM | TGI [60]: > 100 µM | TGI [28]: > 100 µM | TGI [29]: > 100 µM | TGI [30]: > 100 µM | TGI [31]: > 100 µM | TGI [32]: > 100 µM | TGI [33]: > 100 µM | TGI [34]: > 100 µM | TGI [35]: > 100 µM | TGI [36]: > 100 µM | TGI [37]: > 100 µM | TGI [38]: > 100 µM | TGI [39]: > 100 µM | TGI [40]: > 100 µM | TGI [41]: > 100 µM | TGI [42]: > 100 µM | TGI [43]: > 100 µM | TGI [66]: > 100 µM | TGI [44]: > 100 µM | TGI [67]: > 100 µM | TGI [45]: > 100 µM | TGI [47]: > 100 µM | TGI [48]: > 100 µM | TGI [49]: > 100 µM | TGI [51]: > 100 µM | TGI [52]: > 100 µM | TGI [53]: > 100 µM
